Reference: publication PMC7906907, “Targeting STAT3 by a small molecule suppresses pancreatic cancer progression” (Oncogene, 2021)
pKd: −log10 of the molar value.

Legend:
[1] = molecular target: His-STAT3^127-722 protein (Homo sapiens, UniProt P40763); assay: Microscale thermophoresis (MST) assay, STAT3^127–722; assay type: binding; design: made in house
Text: Fig. 3 N4 interacts with the STAT3-SH2 domain and interferes with the STAT3-EGFR and STAT3-NF-κB interactions. […] C–E The binding between N4 and STAT3 was examined in (C) SPR and (D) MST experiments. His-STAT3^127-722 protein was purified and used to examine the affinity between STAT3 and N4. (E) The binding between N4 and STAT3^SH2 was confirmed in MST assays. STAT3-SH2 protein was purified and labeled. N4 was serially diluted and mixed with equal volumes of labeled STAT3^SH2 protein. The MST signal was measured, and the data were analyzed by MO analysis software. F, G The FLAG-tag and HA-tag STAT3 expression plasmid was transfected into 293 T cells, followed by the addition of the indicated concentrations of N4. After 24 h, cells were lysed, and immunoprecipitation experiments were performed as described in Materials and Methods. H N4 represses STAT3 dimerization in pancreatic cancer cells. I After a 24 h treatment with 2 μM N4, pancreatic cancer cells were stimulated with IL-6 for 30 min. Cell lysates were immunoprecipitated with STAT3 overnight. […]
The MST assay was previously described. Binding affinities of N4 with the purified His-STAT3-SH2 were measured using the Monolith NT.115 device (NanoTemper Technologies). […] The samples were then loaded into premium capillaries (NanoTemper Technologies) and measured using the Monolith NT.115 device. […]

PAN02-luc [2] = assay: Pancreatic cancer liver metastatic mouse model; assay type: in vivo, C57BL/6 mice; settings: for mice alive: n = 5
Description: C57BL/6 mice were intrasplenically injected with luciferase-expressing PAN02 cells (PAN02-luc) in matrigel and tumor growth was assessed (A) and quantified (B) by bioluminescent imaging weekly. […] C After 4 weeks, mice were sacrificed and livers were imaged. D The body weight of C57BL/6 tumor-bearing mice were measured weekly.
C57BL/6, male, 8-week-old mice were obtained from the Animal Center of East China Normal University. All animal experimental protocols were approved by the Animal Investigation Committee of the Institute of Biomedical Sciences, East China Normal University. PAN02 cells that stably expressed luciferase (PAN02-luc) were embedded in Matrigel (BD Biosciences) and intrasplenically injected into mice. Tumors were allowed to grow for 1 week and treatment of the mice with either compound or control was started after grouping of the mice according to average bioluminescence. The IVIS Imaging System (Xenogen Corporation) was used to monitor pancreatic tumor growth and metastasis. Images and measurements of bioluminescent signals were acquired and analyzed using Living Image and Xenogen software.

PAN02-luc [3] = assay: Orthotopic pancreatic cancer tumor model; assay type: in vivo, C57BL/6 mice
Description: Fig. 7 N4 inhibits tumor growth in an orthotopic pancreatic cancer model. C57BL/6 mice were injected the tail of the pancreas with luciferase-expressing PAN02 cells (PAN02-luc) in matrigel and tumor growth was assessed (A) and quantified (B) by bioluminescent imaging weekly. Data represent the mean ± SD; *P < 0.05, **P < 0.01, ***P < 0.001, ****P < 0.0001, n.s. not significant by one-way ANOVA followed by multiple-comparison tests. (n = 5 mice per group) C After 4 weeks, mice were sacrificed and the pancreas were imaged. The tumor of pancreas were photographed (D) and weighted (E), scale bar, 0.5 cm.
Briefly, specimens of tumor tissue from xenograft models and orthotopic models were fixed with 4% paraformaldehyde solution at 4 °C overnight. […] Then, according to the manufacturer’s instructions (SK-4100; Vector laboratories), the avidin-biotin peroxidase complex was used, followed by colorimetric detection using DAB. Finally, hematoxylin was used to counterstain the sections and coverslips were mounted.
C57BL/6 mice, male, 4–6 week old were obtained from the Animal Center of East China Normal University. All animal experimental protocols were approved by the Animal Investigation Committee of the Institute of Biomedical Sciences, East China Normal University. PAN02 cells that stably expressed luciferase (PAN02-luc) were embedded in Matrigel (BD Biosciences) were injected with 5 × 10^5 in the tail of the pancreas. On the next day (day 0), the mice were subjected to bioluminescent imaging and divided into four groups according to the luciferase luminescence value. Mice were treated with intraperitoneal injection of indicated compound or drug. Tumor growth was analyzed once a week by an IVIS Imaging System (Xenogen Corporation, Alameda, CA) and end of study tumor weight was determined immediately postmortem. […] Images and measurements of bioluminescent signals were acquired and analyzed using Living Image and Xenogen software.

Chain of His-STAT3^127-722 protein (P40763 127-722): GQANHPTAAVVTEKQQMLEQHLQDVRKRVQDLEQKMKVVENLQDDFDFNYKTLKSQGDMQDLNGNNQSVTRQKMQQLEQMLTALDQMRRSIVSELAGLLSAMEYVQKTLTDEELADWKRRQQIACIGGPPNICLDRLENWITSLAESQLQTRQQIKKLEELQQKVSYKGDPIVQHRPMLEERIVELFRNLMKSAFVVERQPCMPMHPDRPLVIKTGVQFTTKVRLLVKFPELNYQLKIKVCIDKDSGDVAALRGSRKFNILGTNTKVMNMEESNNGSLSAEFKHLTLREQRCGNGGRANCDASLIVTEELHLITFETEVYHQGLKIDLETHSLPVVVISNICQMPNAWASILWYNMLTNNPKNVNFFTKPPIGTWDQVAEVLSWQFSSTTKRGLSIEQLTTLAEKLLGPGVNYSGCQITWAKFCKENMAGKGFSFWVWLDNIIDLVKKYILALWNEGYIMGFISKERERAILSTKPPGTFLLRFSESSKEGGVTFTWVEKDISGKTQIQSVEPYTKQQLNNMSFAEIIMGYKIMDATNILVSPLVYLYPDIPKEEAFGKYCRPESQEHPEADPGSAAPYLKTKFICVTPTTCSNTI

Compound: COc1cc2c(cc1C(=O)Nc1cccc3cccnc13)CCC1C(C)(C)C(=O)C(C#N)=C[C@]21C (stereo partly drawn) [N4]
- pKd ([1]; STAT3^127-722, value printed in figure): 5.69
- pKd ([1]; STAT3^127–722): 5.69
- mice bodyweight (PAN02-luc [2]; measured weekly): no obvious effect
- tumor metastasis suppressed compared with the control group (PAN02-luc [2]; week 4, 10 mg/kg/d): 63.25%
- tumor metastasis suppressed compared with the control group (PAN02-luc [2]; week 4, 20 mg/kg/d): 81.16%
- mice alive (PAN02-luc [2]; week 10, 10 mg/kg/d): 40%
- mice alive (PAN02-luc [2]; week 10, 20 mg/kg/d): 80%
- expression of stromal cells marker α-SMA in vivo (PAN02-luc [3]; IHC of tumor tissue): drastically suppressed
- expression of vimentin in vivo (PAN02-luc [3]; IHC of tumor tissue): significantly suppressed
- number of TAM (F4/80+ macrophages) (PAN02-luc [3]; IHC of tumor tissue): significantly decreased
- tumor volume suppressed compared with the control group (PAN02-luc [3]; week 4, 10 mg/kg/d): 97.34%
- tumor volume suppressed compared with the control group (PAN02-luc [3]; week 4, 20 mg/kg/d): 98.88%
